Literature values in patent US4904678A, “Sickle cell anemia control” (Norris; Jerome J., priority 1987, dated 1990).

Tested on: erythrocytes
Details: about 4 mols of potassium cyanate incorporated per mol of hemoglobin tetramer

## N#CO [potassium cyanate]
  Erythrocytes prevented from sickling: up to 80%
